Reference: article PMC8999125, “In Vitro and In Vivo Effects of the Urokinase Plasminogen Activator Inhibitor WX-340 on Anaplastic Thyroid Cancer Cell Lines” (International Journal of Molecular Sciences, 2022)

Target: T1, urokinase-type plasminogen activator (uPA) (Homo sapiens, UniProt P00749)
T1 construct: gene PLAU; uPA purified from human urine
Experiment: colorimetric uPA activity assay (CHEMICON kit), dose-response […] to […]
Format: biochemical

WX-340
IC50: 90 nM
